From patent publication US20220387469A1, “METHOD OF UTILIZING ULTRAFINE BUBBLES” (Shiseido Company, Ltd., priority 2019, published 2022) come the findings set out here.

Molecules are shown by their SMILES.

The data set in a line: Permeation of adenosine into stratum corneum of forearm skin (tape peel, LC-MS quantification). Particulars: forearm of a test subject, Formulation 1 that contains ultrafine bubbles (aerosol spray, actuator D391, nitrogen 0.9 MPa) applied first, then Formulation 2 (0.2% adenosine) applied for 10 minutes, 1 cm by 1 cm stratum corneum. The class given is in vivo, human. The source says:
In order to provide Formulation 1 that contains ultrafine bubbles onto the skin, the aerosol container 10 was filled with Formulation 1, and the interior pressure was set to 0.9 MPa with nitrogen gas. The actuator “D391” having a flow rate adjusting mechanism produced by K. K. Mitani Valves was applied as the spray actuator 11.
That is, a liquid which was sprayed from the aerosol container 10 and Formulation 1 as an undiluted liquid were applied to two different locations on a forearm of a test subject. Thereafter, Formulation 2 that contains adenosine was applied onto each of the two locations for 10 minutes. Next, 1 cm by 1 cm squares of stratum corneum were peeled from the locations onto which the formulations were applied, stratum corneum components were extracted, and the amounts of adenosine were quantitatively analyzed by the LC-MS method (Liquid Chromatography Mass Spectrometry method).

As for `Nc1ncnc2c1ncn2[C@@H]1O[C@H](CO)[C@@H](O)[C@H]1O` [adenosine], the “amount of adenosine within the stratum corneum, relative to the case that Formulation 1 that did not contain ultrafine bubbles was applied” value amounted to 1.6 times.
